Values joined by “and” are separate entries in the source; they are usually repeats but may differ in a detail not shown here. Identical values can stand only once.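 Step 1: Grow cells in 96-well plates. Step 2: Expose to compound for 48 hours at 5 concentrations. Step 3: Interpolate endpoints linearly; if unreached, use highest concentration. Here, GI50 denotes the concentration required for 50% inhibition of growth. TGI denotes the concentration required for complete inhibition of growth.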
Key:
Test in all cases: growth of human tumour cells (NCI), 48 h
EKVX NSCLC = test system: EKVX NSCLC
HCT-15 colon = test system: HCT-15 colon
HS 578T breast = test system: HS 578T breast
KM12 colon = test system: KM12 colon
M14 melanoma = test system: M14 melanoma
MCF7 breast = test system: MCF7 breast
NCI-H522 lung = test system: NCI-H522 lung
OVCAR-4 ovarian = test system: OVCAR-4 ovarian
SF-295 CNS = test system: SF-295 CNS
SK-OV-3 ovarian = test system: SK-OV-3 ovarian

SMILES | GI50 (EKVX NSCLC) | TGI (EKVX NSCLC) | GI50 (HCT-15 colon) | TGI (HCT-15 colon) | GI50 (HS 578T breast) | TGI (HS 578T breast) | GI50 (KM12 colon) | TGI (KM12 colon) | GI50 (M14 melanoma) | TGI (M14 melanoma) | GI50 (MCF7 breast) | TGI (MCF7 breast) | GI50 (NCI-H522 lung) | TGI (NCI-H522 lung) | GI50 (OVCAR-4 ovarian) | TGI (OVCAR-4 ovarian) | GI50 (SF-295 CNS) | TGI (SF-295 CNS) | GI50 (SK-OV-3 ovarian) | TGI (SK-OV-3 ovarian)
Oc1ccc2oc3ncc(Cl)c(-c4ccccc4)c3c2c1 | > 100 µM | > 100 µM | > 100 µM | > 100 µM | > 100 µM | > 100 µM | > 100 µM | > 100 µM | > 100000 nM | > 100 µM | > 100000 nM | > 100 µM | > 100 µM | > 100 µM | > 100 µM | > 100 µM | > 100000 nM | > 100 µM | > 100 µM | > 100 µM
Cc1ccc(Cl)cc1Nc1nc(C(F)(F)F)ccc1C(=O)Nc1cccc(C(F)(F)F)c1 | 2.7 µM | 10.9 µM | 3.67 µM | 14.9 µM | 4.66 µM | 20 µM | 3.12 µM | 12.8 µM | 2990 nM | 10.3 µM | 2490 nM | 9.5 µM | 1.78 µM | 6.37 µM | 3.58 µM | 17.8 µM | 3650 nM | 18.4 µM | 1.74 µM | 5.47 µM
CCSc1oc(-c2ccccc2)nc1[P+](c1ccccc1)(c1ccccc1)c1ccccc1 | 0.289 µM | 1.84 µM | 0.622 µM | 4.66 µM | 0.314 µM | 2.72 µM | 0.233 µM | 1.09 µM | 334 nM | 1.84 µM | 246 nM | 1.28 µM | 0.261 µM | 1.09 µM | 0.217 µM | 1.48 µM | 241 nM | 0.739 µM | 0.275 µM | 0.977 µM
CCOC1OCCCC1Br (stereo not given) | – | > 100 µM | – | > 100 µM | – | > 100 µM | – | > 100 µM | – | > 100 µM | – | > 100 µM | – | > 100 µM | – | > 100 µM | – | > 100 µM | – | > 100 µM
COc1ccc(-c2oc(=O)ccc2C#Cc2cc(OC)c(OC)c(OC)c2)cc1O | 66.7 µM | > 100 µM | 26.3 µM | > 100 µM | 30.2 µM | > 100 µM | 50 µM | > 100 µM | 26900 nM | > 100 µM | 15900 nM | 51.7 µM | 8.7 µM | 37.5 µM | 67 µM | > 100 µM | 12800 nM | 75.4 µM | 30.7 µM | > 100 µM
Nc1[nH]c(=O)ncc1F | – | > 100 µM | – | > 100 µM | – | > 100 µM | – | > 100 µM | – | > 100 µM | – | > 100 µM | – | > 100 µM | – | > 100 µM | – | > 100 µM | – | > 100 µM
Cn1nc(C(F)(F)F)c(-c2ccc(Cl)c(C(F)(F)F)c2)c1-c1ccc(OCc2ccc(Cl)cc2)cc1O | 1.73 µM | 7.73 µM | 1.6 µM | 6 µM | 1.42 µM | 8.98 µM | 1.6 µM | 5.91 µM | 1810 nM | 6.85 µM | 1520 nM | 6.01 µM | 1.47 µM | 5.64 µM | 1.62 µM | 6.13 µM | 1640 nM | 5.59 µM | 1.42 µM | 4.32 µM
COc1ccc2c(c1)CCC1C2CC[C@@]2(C)C1CC[C@@]2(O)CNC(=O)/C=C/c1ccc(O)c(OC)c1 (stereo not given in full) | 10.7 µM | 83.7 µM | 11.5 µM | 33.1 µM | 75.3 µM | > 100 µM | 4.77 µM | > 100 µM | 15800 nM | 53 µM | 7410 nM | > 100 µM | 19.9 µM | > 100 µM | 14.9 µM | > 100 µM | 28400 nM | > 100 µM | 66.1 µM | > 100 µM
CCCS(=O)(=O)Nc1ccc(F)c(C(=O)c2c[nH]c3ncc(-c4ccc(Cl)cc4)cc23)c1F | 6.86 µM and > 10 µM | 40.7 µM and > 10 µM | 4.45 µM and 4.1 µM | 17.7 µM and > 10 µM | 1.3 µM and 1.96 µM | 6.44 µM and 9.94 µM | 4.17 µM and 6.02 µM | 16.8 µM and > 10 µM | 40.3 nM and 41.3 nM | 1.34 µM and 2.21 µM | 5240 nM and 8840 nM | 20.9 µM and > 10 µM | 7.14 µM and > 7.96 µM | 22.3 µM and > 10 µM | 6.13 µM and > 7.33 µM | 25.7 µM and > 10 µM | 2620 nM and 3170 nM | 11.5 µM and > 10 µM | 4.19 µM and 3.38 µM | 19 µM and > 10 µM
S=c1nc(-c2ccccc2)oc(=NC2CCCCC2)n1C1CCCCC1 | 2.14 µM | 12 µM | 3.35 µM | 13.5 µM | 3.3 µM | 14.5 µM | 3.48 µM | 10.1 µM | 6200 nM | 27.8 µM | 3200 nM | 12.2 µM | 4.8 µM | 18.3 µM | 5.56 µM | 61 µM | 4070 nM | 37.4 µM | 5.05 µM | > 100 µM
CC(=O)OCC1OC(OC2C(COC(C)=O)OC(OCCC[S-])C(OC(C)=O)C2OC(C)=O)C(OC(C)=O)C(OC(C)=O)C1OC(C)=O.[Au+].c1ccc(CN2[CH-]N(Cc3ccccc3)C(c3ccccc3)=C2c2ccccc2)cc1 (stereo not given) | 3.15 µM | 15.9 µM | 3.17 µM | 12.2 µM | 9.16 µM | 87.7 µM | 3.8 µM | 16.1 µM | 3260 nM | 14.5 µM | 2440 nM | 9.58 µM | 1.72 µM | 4.55 µM | 3.45 µM | 22.9 µM | 2140 nM | 7.3 µM | 3.06 µM | 12.6 µM
COc1cc(C)c(C(=O)O[C@H]2[C@H](O[C@H]3[C@@H](O)COC(O[C@H]4C[C@H]5[C@@H]6CC=C7C[C@@H](O)CC[C@]7(C)[C@H]6CC[C@]5(C)[C@H]4[C@H](C)C(=O)CCC(C)C)[C@@H]3OC(C)=O)OC[C@@H](O)[C@@H]2O)c(C)c1 (stereo not given in full) | 1.06 µM | 15.1 µM | 0.0543 µM | 1.94 µM | < 0.01 µM | 0.161 µM | 0.153 µM | 18.4 µM | < 10 nM | < 0.01 µM | < 10 nM | 7.62 µM | < 0.01 µM | 0.334 µM | 0.571 µM | 69.9 µM | < 10 nM | < 0.01 µM | 0.141 µM | 2.73 µM
O=C1NC(=O)/C(=C/C=C/c2ccccc2)S1 | 6.1 µM | > 100 µM | 9.3 µM | 51.7 µM | 13.4 µM | > 100 µM | 8.25 µM | 21.8 µM | 2100 nM | > 20.6 µM | 1360 nM | > 100 µM | 7.82 µM | 52.7 µM | 80.8 µM | > 100 µM | 576 nM | 6.35 µM | 38.7 µM | > 100 µM

From PubChem BioAssay (NCI)
